Experimental data published in patent publication US11771709B2, “ALK protein degradation agent and anti-tumor application thereof” (ShanghaiTech University, priority 2017, dated 2023).

Columns and labels:
Format in all cases: cell-based
[1] = test system: SR (NPM-ALK) cells; test: Growth inhibition IC50 in ALCL SR cells (CCK8/WST, 72 hours); settings: SR cells, WST
Protocol: SR (NPM-ALK) and NCI-H2228 (EML4-ALK, V3) cells were purchased from ATCC. […] All Cells were cultured in RPMI1640 medium with 10% FBS and Penicillin-Streptomycin in 37° C. incubator with 5% CO2.
Cells were seeded at specific density in 96 well plates one day before treatment. […] Viable cells were measured via CCK8 reagent and IC50s were calculated via Prism Graphad. Experiments were repeated at least three times.

[2] = molecular target: T1, ALK protein in SR (NPM-ALK) cells (Homo sapiens, UniProt Q9UM73); test: Western blot of ALK protein level (degradation, DC50), ALK phosphorylation and downstream signaling in SR cells; settings: for DC50 (nM) in SR / DC50: ALK protein degradation in SR cells
T1 construct: NPM (nucleophosmin, NPM1, P06748) fusion partner; host or cells: SR (ALCL) cells; the other entry of the earlier key: NPM1 (P06748, Nucleophosmin)

[3] = molecular target: T2, ALK protein in H3122 (EML4-ALK) cells (Homo sapiens, UniProt Q9UM73); test: Western blot of ALK protein level (degradation, DC50), ALK phosphorylation and downstream signaling in H3122 cells; settings: ALK protein degradation in H3122 cells
T2 construct: EML4 (Echinoderm microtubule-associated protein-like 4, Q9HC35) fusion partner, variant 1; host or cells: NCI-H3122 lung adenocarcinoma cells; the other entry of the earlier key: EML4 (Q9HC35, Echinoderm microtubule-associated protein-like 4)

[4] = 72 h, Brigatinib-based PROTAD molecules (Table 3)
[5] = Alectinib based ALK PROTAD compounds (Table 4)

T2 sequence (Q9UM73 with tags, fused parts or gaps): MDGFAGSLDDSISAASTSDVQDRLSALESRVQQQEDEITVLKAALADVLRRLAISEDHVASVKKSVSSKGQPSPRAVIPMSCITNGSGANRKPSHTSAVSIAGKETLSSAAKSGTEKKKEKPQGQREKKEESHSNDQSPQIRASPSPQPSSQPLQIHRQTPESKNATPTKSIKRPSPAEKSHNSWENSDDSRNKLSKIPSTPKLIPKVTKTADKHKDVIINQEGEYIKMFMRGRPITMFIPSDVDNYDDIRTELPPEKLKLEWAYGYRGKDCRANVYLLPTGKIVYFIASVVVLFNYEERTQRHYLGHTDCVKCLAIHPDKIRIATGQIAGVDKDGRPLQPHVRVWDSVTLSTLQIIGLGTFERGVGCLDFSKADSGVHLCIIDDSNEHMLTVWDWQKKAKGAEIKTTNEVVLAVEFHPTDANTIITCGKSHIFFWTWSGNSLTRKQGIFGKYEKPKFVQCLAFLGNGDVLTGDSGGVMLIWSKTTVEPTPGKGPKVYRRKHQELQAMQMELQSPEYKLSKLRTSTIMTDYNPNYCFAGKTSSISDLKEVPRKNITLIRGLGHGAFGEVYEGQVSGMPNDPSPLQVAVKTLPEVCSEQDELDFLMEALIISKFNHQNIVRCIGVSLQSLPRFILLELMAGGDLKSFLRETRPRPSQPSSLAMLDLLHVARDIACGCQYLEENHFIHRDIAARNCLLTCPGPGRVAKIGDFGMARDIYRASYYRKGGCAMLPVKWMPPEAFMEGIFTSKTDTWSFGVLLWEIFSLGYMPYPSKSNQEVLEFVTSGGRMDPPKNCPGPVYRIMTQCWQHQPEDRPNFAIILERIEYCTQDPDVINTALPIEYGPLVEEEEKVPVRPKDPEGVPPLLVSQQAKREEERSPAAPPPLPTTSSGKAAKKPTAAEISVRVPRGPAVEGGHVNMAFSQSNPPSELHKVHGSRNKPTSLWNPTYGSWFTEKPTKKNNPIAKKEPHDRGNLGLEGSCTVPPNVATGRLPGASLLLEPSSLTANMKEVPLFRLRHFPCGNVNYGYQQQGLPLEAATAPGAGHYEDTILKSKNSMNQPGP
T1 sequence (Q9UM73 with tags, fused parts or gaps): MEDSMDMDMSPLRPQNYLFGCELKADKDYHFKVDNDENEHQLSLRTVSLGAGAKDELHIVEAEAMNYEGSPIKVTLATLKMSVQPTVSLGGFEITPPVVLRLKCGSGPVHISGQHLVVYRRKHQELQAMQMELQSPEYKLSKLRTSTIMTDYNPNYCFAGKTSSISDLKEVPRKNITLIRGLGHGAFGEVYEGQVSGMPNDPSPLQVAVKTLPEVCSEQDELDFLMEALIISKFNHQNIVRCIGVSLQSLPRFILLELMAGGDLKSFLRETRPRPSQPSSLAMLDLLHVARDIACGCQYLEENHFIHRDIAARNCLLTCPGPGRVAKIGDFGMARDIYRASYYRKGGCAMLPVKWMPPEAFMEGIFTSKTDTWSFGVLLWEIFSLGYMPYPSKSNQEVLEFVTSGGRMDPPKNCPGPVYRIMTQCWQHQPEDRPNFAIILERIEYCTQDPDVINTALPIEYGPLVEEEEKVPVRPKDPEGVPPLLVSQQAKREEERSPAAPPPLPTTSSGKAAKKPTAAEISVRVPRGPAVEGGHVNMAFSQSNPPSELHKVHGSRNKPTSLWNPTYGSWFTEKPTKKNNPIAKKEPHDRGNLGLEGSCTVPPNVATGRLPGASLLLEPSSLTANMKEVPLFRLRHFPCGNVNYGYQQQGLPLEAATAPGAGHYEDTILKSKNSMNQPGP

Row | Compound | IC50 [1, 4] [nM] | DC50 [2] [nM] | DC50 [3] [nM] | also measured
1 | COc1cc(N2CCC(N)CC2)ccc1Nc1ncc(Cl)c(Nc2ccccc2P(C)(C)=O)n1 [Brigatinib Analogue B(SIAIS151101), (2-((2-((4-(4-aminopiperidin-1-yl)-2-methoxyphenyl)amino)-5-chloropyrimidin-4-yl)amino)phenyl)dimethylphosphine oxide] | 1.7 ± 1.4 |  |  | DC50 (nM) in SR [2]: Not degrade; DC50 (nM)) in H3122 [3]: Not degrade
2 | COc1cc(N2CCC(N3CCNCC3)CC2)ccc1Nc1ncc(Cl)c(Nc2ccccc2P(C)(C)=O)n1 [Brigatinib Analogue C(SIAIS164005), (2-((5-chloro-2-((2-methoxy-4-(4-(piperazin-1-yl)piperidin-1-yl)phenyl)amino)pyrimidin-4-yl)amino)phenyl)dimethylphosphine oxide] | 6.7 ± 3.1 |  |  | DC50 (nM) in SR [2]: Not degrade; ALK protein degradation ([2]; SR cells, western blot, 16 hours, up to 500 nM): did not degrade ALK protein; DC50 (nM)) in H3122 [3]: Not degrade
3 | COc1cc(N2CCC(NC(=O)CCCCCCNc3cccc4c3C(=O)N(C3CCC(=O)NC3=O)C4=O)CC2)ccc1Nc1ncc(Cl)c(Nc2ccccc2P(C)(C)=O)n1 (centres unmarked) [SIAIS151123, N-(1-(4-((5-chloro-4-((2-(dimethylphosphoryl)phenyl)amino)pyrimidin-2-yl)amino)-3-methoxyphenyl)piperidin-4-yl)-7-((2-(2,6-dioxopiperidin-3-yl)-1,3-dioxoisoindolin-4-yl)amino)heptanamide] | 1.9 ± 1.5 | 0.1 to 2 | 1 to 50 | 
4 | COc1cc(N2CCC(N3CCN(C(=O)CCOCCOCCOCCNc4cccc5c4C(=O)N(C4CCC(=O)NC4=O)C5=O)CC3)CC2)ccc1Nc1ncc(Cl)c(Nc2ccccc2P(C)(C)=O)n1 (centres unmarked) [SIAIS164009, 4-((2-(2-(2-(3-(4-(1-(4-((5-chloro-4-((2-(dimethylphosphoryl)phenyl)amino)pyrimidin-2-yl)amino)-3-methoxyphenyl)piperidin-4-yl)piperazin-1-yl)-3-oxopropoxy)ethoxy)ethoxy)ethyl)amino)-2-(2,6-dioxopiperidin-3-yl)isoindoline-1,3-dione] | 5.3 ± 1.7 | 1 to 10 | 1 to 10 | concentration at which ALK proteins were degraded ([2]; SR cells, western blot): 1 nM
5 | CCc1cc2c(cc1N1CCN(C(=O)CCOCCOCCNc3cccc4c3C(=O)N(C3CCC(=O)NC3=O)C4=O)CC1)C(C)(C)c1[nH]c3cc(C#N)ccc3c1C2=O (centres unmarked) [SIAIS164012, 8-(4-(3-(2-(2-((2-(2,6-dioxopiperidin-3-yl)-1,3-dioxoisoindolin-4-yl)amino)ethoxy)ethoxy)propanoyl)piperazin-1-yl)-9-ethyl-6,6-dimethyl-11-oxo-6,11-dihydro-5H-benzo[b]carbazole-3-carbonitrile] |  | 1 to 50 | 1 to 50 | IC50 [1, 5]: 48.9 nM
6 | COc1cc(N2CCC(N3CCN(C(=O)CCOCCOCCOCCOCCNc4cccc5c4C(=O)N(C4CCC(=O)NC4=O)C5=O)CC3)CC2)ccc1Nc1ncc(Cl)c(Nc2ccccc2P(C)(C)=O)n1 (centres unmarked) [SIAIS164016, 4-((15-(4-(1-(4-((5-chloro-4-((2-(dimethylphosphoryl)phenyl)amino)pyrimidin-2-yl)amino)-3-methoxyphenyl)piperidin-4-yl)piperazin-1-yl)-15-oxo-3,6,9,12-tetraoxapentadecyl)amino)-2-(2,6-dioxopiperidin-3-yl)isoindoline-1,3-dione] | 11.2 ± 6.8 | 1 to 10 | 1 to 10 | 
7 | COc1cc(N2CCC(N3CCN(C(=O)CCOCCOCCOCCOCCOCCNc4cccc5c4C(=O)N(C4CCC(=O)NC4=O)C5=O)CC3)CC2)ccc1Nc1ncc(Cl)c(Nc2ccccc2P(C)(C)=O)n1 (stereo not drawn) [SIAIS164017, 4-((18-(4-(1-(4-((5-chloro-4-((2-(dimethylphosphoryl)phenyl)amino)pyrimidin-2-yl)amino)-3-methoxyphenyl)piperidin-4-yl)piperazin-l-yl)-18-oxo-3,6,9,12,15-pentaoxaoctadecyl)amino)-2-(2,6-dioxopiperidin-3-yl)isoindoline-1,3-dione] | 14 ± 8.6 | 100 to 500 |  | DC50 (nM)) in H3122 [3]: 0.02 to 20 nM
8 | COc1cc(N2CCC(N3CCN(C(=O)CCNc4cccc5c4C(=O)N(C4CCC(=O)NC4=O)C5=O)CC3)CC2)ccc1Nc1ncc(Cl)c(Nc2ccccc2P(C)(C)=O)n1 (centres unmarked) [SIAIS164019, 4-((3-(4-(1-(4-((5-chloro-4-((2-(dimethylphosphoryl)phenyl)amino)pyrimidin-2-yl)amino)-3-methoxyphenyl)piperidin-4-yl)piperazin-1-yl)-3-oxopropyl)amino)-2-(2,6-dioxopiperidin-3-yl)isoindoline-1,3-dione] | 9.6 ± 8 | 1 to 10 | 10 to 20 | 
9 | COc1cc(N2CCC(N3CCN(C(=O)CCCNc4cccc5c4C(=O)N(C4CCC(=O)NC4=O)C5=O)CC3)CC2)ccc1Nc1ncc(Cl)c(Nc2ccccc2P(C)(C)=O)n1 (centres unmarked) [SIAIS164020, 4-((4-(4-(1-(4-((5-chloro-4-((2-(dimethylphosphoryl)phenyl)amino)pyrimidin-2-yl)amino)-3-methoxyphenyl)piperidin-4-yl)piperazin-1-yl)-4-oxobutyl)amino)-2-(2,6-dioxopiperidin-3-yl)isoindoline-1,3-dione] | 2.9 ± 1.5 | 0.5 to 10 | 1 to 50 | 
10 | CCc1cc2c(cc1N1CCN(C(=O)CNc3cccc4c3C(=O)N(C3CCC(=O)NC3=O)C4=O)CC1)C(C)(C)c1[nH]c3cc(C#N)ccc3c1C2=O (centres unmarked) [SIAIS164028, 8-(4-((2-(2,6-dioxopiperidin-3-yl)-1,3-dioxoisoindolin-4-yl)glycyl)piperazin-1-yl)-9-ethyl-6,6-dimethyl-11-oxo-6,11-dihydro-5H-benzo[b]carbazole-3-carbonitrile] |  | 1 to 50 | 1 to 10 | IC50 [1, 5]: 19.7 nM
11 | COc1cc(N2CCN(C(=O)CCOCCOCCOCCOCCOCCC(=O)N[C@H](C(=O)N3C[C@H](O)C[C@H]3C(=O)NCc3ccc(-c4scnc4C)cc3)C(C)(C)C)CC2)ccc1Nc1ncc(Cl)c(Nc2ccccc2P(C)(C)=O)n1 [SIAIS1197085, (2S,4R)-1-((S)-2-(tert-butyl)-22-(4-(4-((5-chloro-4-((2-(dimethylphosphoryl)phenyl)amino)pyrimidin-2-yl)amino)-3-methoxyphenyl)piperazin-1-yl)-4,22-dioxo-7,10,13,16,19-pentaoxa-3-azadocosanoyl)-4-hydroxy-N-(4-(4-methylthiazol-5-yl)benzyl)pyrrolidine-2-carboxamide] | 62.5 ± 39.2 |  | 20 to 100 | 
12 | COc1cc(N2CCN(C(=O)COCCOCC(=O)N[C@H](C(=O)N3C[C@H](O)C[C@H]3C(=O)NCc3ccc(-c4scnc4C)cc3)C(C)(C)C)CC2)ccc1Nc1ncc(Cl)c(Nc2ccccc2P(C)(C)=O)n1 [SIAIS1197087, (2S,4R)-1-((S)-2-(2-(2-(2-(4-(4-((5-chloro-4-((2-(dimethylphosphoryl)phenyl)amino)pyrimidin-2-yl)amino)-3-methoxyphenyl)piperazin-1-yl)-2-oxoethoxy)ethoxy)acetamido)-3,3-dimethylbutanoyl)-4-hydroxy-N-(4-(4-methylthiazol-5-yl)benzyl)pyrrolidine-2-carboxamide] | 10.6 ± 2.4 |  | 50 to 500 | 
13 | COc1cc(N2CCN(C(=O)CCC(=O)N[C@H](C(=O)N3C[C@H](O)C[C@H]3C(=O)NCc3ccc(-c4scnc4C)cc3)C(C)(C)C)CC2)ccc1Nc1ncc(Cl)c(Nc2ccccc2P(C)(C)=O)n1 [SIAIS1197145, (2S,4R)-1-((S)-2-(4-(4-(4-((5-chloro-4-((2-(dimethylphosphoryl)phenyl)amino)pyrimidin-2-yl)amino)-3-methoxyphenyl)piperazin-1-yl)-4-oxobutanamido)-3,3-dimethylbutanoyl)-4-hydroxy-N-(4-(4-methylthiazol-5-yl)benzyl)pyrrolidine-2-carboxamide] | 8.5 ± 5.6 |  | 1 to 50 | 
14 | COc1cc(N2CCN(C(=O)CCCC(=O)N[C@H](C(=O)N3C[C@H](O)C[C@H]3C(=O)NCc3ccc(-c4scnc4C)cc3)C(C)(C)C)CC2)ccc1Nc1ncc(Cl)c(Nc2ccccc2P(C)(C)=O)n1 [SIAIS1197147, (2S,4R)-1-((S)-2-(5-(4-(4-((5-chloro-4-((2-(dimethylphosphoryl)phenyl)amino)pyrimidin-2-yl)amino)-3-methoxyphenyl)piperazin-1-yl)-5-oxopentanamido)-3,3-dimethylbutanoyl)-4-hydroxy-N-(4-(4-methylthiazol-5-yl)benzyl)pyrrolidine-2-carboxamide] | 14.2 ± 8.2 |  | 20 to 100 | 
15 | COc1cc(N2CCN(C(=O)CCCCC(=O)N[C@H](C(=O)N3C[C@H](O)C[C@H]3C(=O)NCc3ccc(-c4scnc4C)cc3)C(C)(C)C)CC2)ccc1Nc1ncc(Cl)c(Nc2ccccc2P(C)(C)=O)n1 [SIAIS1197149, (2S,4R)-1-((S)-2-(6-(4-(4-((5-chloro-4-((2-(dimethylphosphoryl)phenyl)amino)pyrimidin-2-yl)amino)-3-methoxyphenyl)piperazin-1-yl)-6-oxohexanamido)-3,3-dimethylbutanoyl)-4-hydroxy-N-(4-(4-methylthiazol-5-yl)benzyl)pyrrolidine-2-carboxamide] | 8.2 ± 3.9 |  | 20 to 100 | 
16 | COc1cc(N2CCN(C(=O)CCCCCC(=O)N[C@H](C(=O)N3C[C@H](O)C[C@H]3C(=O)NCc3ccc(-c4scnc4C)cc3)C(C)(C)C)CC2)ccc1Nc1ncc(Cl)c(Nc2ccccc2P(C)(C)=O)n1 [SIAIS1197151, (2S,4R)-1-((S)-2-(7-(4-(4-((5-chloro-4-((2-(dimethylphosphoryl)phenyl)amino)pyrimidin-2-yl)amino)-3-methoxyphenyl)piperazin-1-yl)-7-oxoheptanamido)-3,3-dimethylbutanoyl)-4-hydroxy-N-(4-(4-methylthiazol-5-yl)benzyl)pyrrolidine-2-carboxamide] | 16.7 ± 7.3 |  | 20 to 100 | 
